In PMC8812569, “A widely distributed phosphate-insensitive phosphatase presents a route for rapid organophosphorus remineralization in the biosphere” (Proceedings of the National Academy of Sciences of the …, 2022):

Legend:
Assay in all cases: pNP release at […] nm in whole cells of complemented P. putida phoX mutant
PhoA^Ec = target: T1, PhoA^Ec (Escherichia coli, UniProt P00634); assay type: cell-based, Pseudomonas putida; details: 10 mM pNPP; growth medium or Tris-HCl pH 9.4; 28 °C
T1 construct: full gene expressed in P. putida BIRD-1 phoX mutant; whole-cell assay

PafA^Fj = target: T2, PafA^Fj (Flavobacterium johnsoniae, UniProt A5FP14); assay type: cell-based; details: 10 mM pNPP; growth medium or Tris-HCl pH 9.4; 28 °C
T2 construct: gene Fjoh_0023; full gene expressed from pBBR1MCS-km in P. putida BIRD-1 phoX mutant; whole-cell assay
T2 sequence (A5FP14 19-539): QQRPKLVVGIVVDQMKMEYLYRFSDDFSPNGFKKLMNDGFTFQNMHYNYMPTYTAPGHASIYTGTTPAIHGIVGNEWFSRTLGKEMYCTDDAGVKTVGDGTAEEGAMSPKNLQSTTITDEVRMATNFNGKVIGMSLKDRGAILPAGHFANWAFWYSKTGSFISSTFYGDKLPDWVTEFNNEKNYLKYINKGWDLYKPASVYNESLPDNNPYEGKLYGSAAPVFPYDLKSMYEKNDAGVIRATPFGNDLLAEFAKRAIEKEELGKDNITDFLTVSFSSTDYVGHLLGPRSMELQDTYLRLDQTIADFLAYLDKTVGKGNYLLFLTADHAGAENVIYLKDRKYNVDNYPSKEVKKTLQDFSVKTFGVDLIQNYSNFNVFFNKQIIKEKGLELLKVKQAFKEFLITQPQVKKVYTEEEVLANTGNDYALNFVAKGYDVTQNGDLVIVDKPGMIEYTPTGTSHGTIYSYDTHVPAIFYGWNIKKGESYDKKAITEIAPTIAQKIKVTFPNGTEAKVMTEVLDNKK

PafA^Cp2 = target: T3, PafA^Cp2 (Chitinophaga pinensis, UniProt A0A979G1Z1); assay type: cell-based; details: 10 mM pNPP
T3 construct: gene Cpin_1665; synthesized gene expressed in P. putida BIRD-1 phoX mutant; whole-cell assay
T3 sequence (A0A979G1Z1 29-568): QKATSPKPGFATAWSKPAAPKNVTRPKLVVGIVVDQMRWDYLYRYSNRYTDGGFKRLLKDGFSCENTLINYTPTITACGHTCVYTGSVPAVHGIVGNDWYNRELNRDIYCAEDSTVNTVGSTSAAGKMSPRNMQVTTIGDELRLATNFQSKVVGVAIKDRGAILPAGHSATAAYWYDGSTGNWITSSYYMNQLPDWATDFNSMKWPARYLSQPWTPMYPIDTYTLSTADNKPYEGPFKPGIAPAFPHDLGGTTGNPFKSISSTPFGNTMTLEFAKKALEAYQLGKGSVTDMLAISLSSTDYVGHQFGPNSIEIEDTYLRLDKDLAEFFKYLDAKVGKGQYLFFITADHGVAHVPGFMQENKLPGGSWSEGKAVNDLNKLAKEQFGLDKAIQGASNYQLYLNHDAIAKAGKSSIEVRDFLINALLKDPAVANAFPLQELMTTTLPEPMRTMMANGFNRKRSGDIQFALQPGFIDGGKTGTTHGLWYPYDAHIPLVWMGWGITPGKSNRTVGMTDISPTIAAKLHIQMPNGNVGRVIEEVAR

PhoA2^Fj = target: T4, PhoA2^Fj (Flavobacterium johnsoniae, UniProt A5FF14); assay type: cell-based; details: 10 mM pNPP; growth medium or Tris-HCl pH 9.4; 28 °C
T4 construct: gene Fjoh_3187; full gene expressed from pBBR1MCS-km in P. putida BIRD-1 phoX mutant; whole-cell assay
T4 sequence (A5FF14 27-468): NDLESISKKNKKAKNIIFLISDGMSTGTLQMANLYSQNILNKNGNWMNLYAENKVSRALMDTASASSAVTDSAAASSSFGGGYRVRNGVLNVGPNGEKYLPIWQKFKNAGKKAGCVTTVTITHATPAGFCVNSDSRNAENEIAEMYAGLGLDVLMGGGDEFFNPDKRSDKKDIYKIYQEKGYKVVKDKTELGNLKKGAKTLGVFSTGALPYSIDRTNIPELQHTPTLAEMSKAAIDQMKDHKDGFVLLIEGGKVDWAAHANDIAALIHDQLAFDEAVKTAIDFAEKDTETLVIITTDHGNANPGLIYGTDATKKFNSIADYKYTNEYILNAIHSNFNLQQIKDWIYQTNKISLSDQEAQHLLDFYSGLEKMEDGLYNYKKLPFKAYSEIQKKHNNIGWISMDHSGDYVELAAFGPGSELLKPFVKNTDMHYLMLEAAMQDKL

PafA^Cp1 = target: T5, PafA^Cp1 (Chitinophaga pinensis, UniProt A0A979GMC5); assay type: cell-based; details: 10 mM pNPP
T5 construct: gene Cpin_0724; synthesized gene expressed in P. putida BIRD-1 phoX mutant; whole-cell assay
T5 sequence (A0A979GMC5 26-545): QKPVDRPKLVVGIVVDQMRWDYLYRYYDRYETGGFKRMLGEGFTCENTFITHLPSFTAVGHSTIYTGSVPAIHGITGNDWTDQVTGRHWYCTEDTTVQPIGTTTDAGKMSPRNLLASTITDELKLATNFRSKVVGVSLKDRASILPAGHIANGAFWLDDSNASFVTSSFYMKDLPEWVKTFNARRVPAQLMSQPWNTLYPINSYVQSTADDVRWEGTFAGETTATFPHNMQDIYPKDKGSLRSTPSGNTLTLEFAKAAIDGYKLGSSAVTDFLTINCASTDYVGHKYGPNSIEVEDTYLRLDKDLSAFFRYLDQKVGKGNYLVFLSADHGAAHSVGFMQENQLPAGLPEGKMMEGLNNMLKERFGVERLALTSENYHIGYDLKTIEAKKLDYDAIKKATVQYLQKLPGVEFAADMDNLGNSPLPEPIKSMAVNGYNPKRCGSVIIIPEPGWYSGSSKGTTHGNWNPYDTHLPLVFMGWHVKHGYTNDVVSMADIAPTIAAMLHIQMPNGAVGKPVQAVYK

PhoA1^Fj = target: T6, PhoA1^Fj (Flavobacterium johnsoniae, UniProt A5FEV6); assay type: cell-based, Pseudomonas putida; details: 10 mM pNPP; growth medium or Tris-HCl pH 9.4; 28 °C
T6 construct: gene Fjoh_3249; full gene expressed from pBBR1MCS-km in P. putida BIRD-1 phoX mutant; whole-cell assay
T6 sequence (A5FEV6 19-607): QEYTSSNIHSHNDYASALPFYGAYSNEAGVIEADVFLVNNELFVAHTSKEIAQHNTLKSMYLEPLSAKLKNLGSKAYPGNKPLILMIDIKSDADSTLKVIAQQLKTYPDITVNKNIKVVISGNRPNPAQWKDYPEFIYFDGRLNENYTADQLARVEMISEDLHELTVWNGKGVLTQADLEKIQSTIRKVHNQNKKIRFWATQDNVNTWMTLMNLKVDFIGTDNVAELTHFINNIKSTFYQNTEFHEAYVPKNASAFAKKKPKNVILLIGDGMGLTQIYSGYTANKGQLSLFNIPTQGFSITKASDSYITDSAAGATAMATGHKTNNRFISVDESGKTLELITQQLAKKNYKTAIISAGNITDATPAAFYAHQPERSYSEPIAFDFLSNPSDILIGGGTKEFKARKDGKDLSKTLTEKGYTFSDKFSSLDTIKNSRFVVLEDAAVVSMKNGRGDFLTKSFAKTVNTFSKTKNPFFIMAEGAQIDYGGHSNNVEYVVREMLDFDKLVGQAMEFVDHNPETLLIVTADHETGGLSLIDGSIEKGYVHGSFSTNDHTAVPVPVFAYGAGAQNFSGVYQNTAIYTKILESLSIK

T1 sequence (P00634 22-471): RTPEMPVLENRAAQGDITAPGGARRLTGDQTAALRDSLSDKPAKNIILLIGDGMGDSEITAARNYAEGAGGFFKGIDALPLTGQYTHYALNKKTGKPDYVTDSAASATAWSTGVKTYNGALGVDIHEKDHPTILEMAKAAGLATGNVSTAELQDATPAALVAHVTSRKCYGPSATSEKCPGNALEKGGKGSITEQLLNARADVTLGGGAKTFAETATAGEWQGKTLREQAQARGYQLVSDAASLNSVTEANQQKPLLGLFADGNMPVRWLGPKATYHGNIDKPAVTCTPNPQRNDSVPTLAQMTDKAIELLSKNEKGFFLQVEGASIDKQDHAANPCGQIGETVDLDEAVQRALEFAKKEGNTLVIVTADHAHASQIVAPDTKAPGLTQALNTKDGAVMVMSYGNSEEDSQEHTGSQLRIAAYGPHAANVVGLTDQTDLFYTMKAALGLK

With `O=[N+]([O-])c1ccc(OP(=O)(O)O)cc1` [para-nitrophenyl phosphate] the PME activity (PhoA^Ec) was “Plasmid copies of either phoX^BIRD (+pBXphoX^BIRD) or the E. coli phoA (+pBXphoA^Ec) restored PME activity”, the PME activity (PafA^Fj) was “or PafA^Fj (+pBXpafA^Fj) also restored PME activity, confirming their function as PMEs” and the PME activity (PafA^Cp2) was “demonstrating both are functional Pi-insensitive PMEs”. The PME activity (PhoA2^Fj) was “cells producing PhoA1^Fj (+pBXphoA1^Fj), PhoA2^Fj (+pBXphoA2^Fj), or PafA^Fj (+pBXpafA^Fj) also restored PME activity”, the PME activity (PafA^Cp1) was “demonstrating both are functional Pi-insensitive PMEs” and the PME activity (PhoA1^Fj) was “cells producing PhoA1^Fj (+pBXphoA1^Fj), PhoA2^Fj (+pBXphoA2^Fj), or PafA^Fj (+pBXpafA^Fj) also restored PME activity”.
